Structures are written as SMILES.

What all share (type): biochemical
For one experiment, the target named is T1, AT4G27480 (248) (Arabidopsis thaliana, UniProt F4JIW2).
T1 construct: full-length CDS, C-terminal YFP and HA tags (pEarleyGate 101), transient expression in Nicotiana benthamiana, Triton X-100 treated microsomal membranes, about 75 kDa fusion
In words: glucuronosyltransferase assay, RP-HPLC with fluorescence detection. The settings on record: donor 0.4 mM; acceptor 5 uM β-Gal-NBD, β-1,6-Gal4-AA or β-1,3-Gal5-AA; 25 °C, 2 h; microsomes.

Experiment [1] concerns the target T2, AT5G15050 (249, AtGlcAT14B) (Arabidopsis thaliana, UniProt Q9LFQ0).
T2 construct: gene GLCAT14B; full-length CDS, C-terminal YFP and HA tags (pEarleyGate 101), transient expression in Nicotiana benthamiana, Triton X-100 treated microsomal membranes, about 75 kDa fusion
T2 sequence (Q9LFQ0 1-434): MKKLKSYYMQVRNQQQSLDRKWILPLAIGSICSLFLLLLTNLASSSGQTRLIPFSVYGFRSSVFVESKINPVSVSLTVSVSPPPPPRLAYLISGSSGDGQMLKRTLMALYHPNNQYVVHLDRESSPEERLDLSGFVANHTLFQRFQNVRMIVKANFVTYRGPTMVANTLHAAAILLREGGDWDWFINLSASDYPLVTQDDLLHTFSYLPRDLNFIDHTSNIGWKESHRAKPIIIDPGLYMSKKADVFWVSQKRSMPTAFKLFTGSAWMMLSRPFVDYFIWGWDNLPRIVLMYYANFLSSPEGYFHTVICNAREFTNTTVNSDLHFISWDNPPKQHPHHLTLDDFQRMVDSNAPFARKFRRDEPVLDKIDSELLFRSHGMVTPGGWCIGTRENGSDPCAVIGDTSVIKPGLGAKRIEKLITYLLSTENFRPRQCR
The description is as above. The note with it: donor 0.4 mM; acceptor 5 uM β-Gal-NBD, β-1,6-Gal4-AA or β-1,3-Gal5-AA; 25 °C, 2 h; microsomes.

For experiment [2], the target named is T3, AT3G15350 (245, AtGlcAT14E) (Arabidopsis thaliana, UniProt Q9LE60).
T3 construct: full-length CDS, C-terminal YFP and HA tags (pEarleyGate 101), transient expression in Nicotiana benthamiana, Triton X-100 treated microsomal membranes, about 75 kDa fusion
T3 sequence (Q9LE60 1-424): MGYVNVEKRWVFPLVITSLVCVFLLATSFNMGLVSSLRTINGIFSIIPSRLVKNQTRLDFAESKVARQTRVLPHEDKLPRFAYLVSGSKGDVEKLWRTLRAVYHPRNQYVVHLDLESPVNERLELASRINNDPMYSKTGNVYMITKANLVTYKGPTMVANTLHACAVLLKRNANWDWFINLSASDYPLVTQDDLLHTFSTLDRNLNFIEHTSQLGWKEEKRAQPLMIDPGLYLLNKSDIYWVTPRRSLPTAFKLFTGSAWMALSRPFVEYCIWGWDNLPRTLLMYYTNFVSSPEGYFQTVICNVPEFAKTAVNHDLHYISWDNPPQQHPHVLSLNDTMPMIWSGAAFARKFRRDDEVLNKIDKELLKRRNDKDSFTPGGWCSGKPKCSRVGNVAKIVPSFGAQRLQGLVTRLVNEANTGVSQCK
The experiment in a line: glucuronosyltransferase assay, RP-HPLC fluorescence and LC-ESI-MS of products. The note with it: donor 0.4 mM; acceptor 5 uM β-1,3-Gal5-AA; 25 °C, 2 h; microsomes.

T1 sequence (F4JIW2 1-421): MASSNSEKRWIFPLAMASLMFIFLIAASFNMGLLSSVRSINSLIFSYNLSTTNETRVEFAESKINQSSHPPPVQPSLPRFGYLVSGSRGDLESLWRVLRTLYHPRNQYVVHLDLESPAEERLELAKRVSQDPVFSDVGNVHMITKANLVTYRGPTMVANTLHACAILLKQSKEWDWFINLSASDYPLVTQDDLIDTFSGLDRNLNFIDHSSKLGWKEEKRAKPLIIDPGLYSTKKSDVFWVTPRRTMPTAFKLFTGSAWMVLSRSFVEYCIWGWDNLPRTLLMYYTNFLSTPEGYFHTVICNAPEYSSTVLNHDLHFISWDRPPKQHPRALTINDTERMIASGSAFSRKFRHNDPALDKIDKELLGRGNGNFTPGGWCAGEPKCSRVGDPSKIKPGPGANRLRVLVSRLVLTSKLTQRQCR

Take `O=C(O)[C@H]1O[C@H](OP(=O)(O)OP(=O)(O)OC[C@H]2O[C@@H](n3ccc(=O)[nH]c3=O)[C@H](O)[C@@H]2O)[C@H](O)[C@@H](O)[C@@H]1O` [UDP-GlcA]: the “glucuronosyltransferase assay, RP-HPLC with fluorescence detection” value at AT4G27480 (248) was “AT4G27480 show the GlcAT activity using the three different acceptors”; in experiment [1], “This result confirms that AtGlcAT14B and AtGlcAT14E have GlcAT activity”. For the same compound, the “glucuronosyltransferase assay, RP-HPLC fluorescence and LC-ESI-MS of products” value in experiment [2] is “However, only UDP-GlcA was an active substrate donor”.

Values taken from paper PMC7866395, “A Pipeline towards the Biochemical Characterization of the Arabidopsis GT14 Family” (International Journal of Molecular Sciences, 2021).
